According to PubChem BioAssay AID302 (DTP/NCI, 2004):
Where “and” joins values, the source holds several entries; their conditions need not be identical. Equal entries are not always repeated. Toxic doses and inconclusive results are not listed. The calls were made as follows: active = survival T/C of 150% or more; inactive = T/C below 125% in these data. Starred links: 1 amine or outer side, 2 acyl side, 3 side chain; linkers in the order of their positions; H or OH if unused. Positions of bridges follow the written chain, without caps; N, C: chain ends. Non-standard residues stand in square brackets, D forms with d. Residues, ends and D or L forms follow the SMILES beside them. Chains are numbered I, II in the order given. Actinocin(9to1) = Cc1c2oc3c(C)ccc(C(=O)[*:1])c3nc-2c(C(=O)[*:2])c(N)c1=O; aThr = C[C@H](O)[C@H](N)C(=O)O; NMeV = CN[C@H](C(=O)O)C(C)C; Sar = CNCC(=O)O

Tested on: BALB/c mice, Madison 109 lung carcinoma i.m., survival
Assay: NCI In Vivo Anticancer Drug Screen. Data for tumor model Madison 109 Lung Carcinoma (intramuscular) in BALB/CM mice
Conditions: endpoint: median survival time, schedule: Q01DX009 (ip), higher = longer survival
Procedure: The antitumor activity of compounds was measured in mice bearing transplantable tumors. Survival or tumor size were measured and the results are expressed as the measurement made in the treated group (T) divided by the measurement made in the vehicle treated control group (C). The tumor model used in this assay is Madison 109 Lung Carcinoma (intramuscular) in BALB/CM mice

[1] = dose: 25.0 mg/kg/injection, vehicle: saline with Tween-80
[2] = dose: 50.0 mg/kg/injection, vehicle: saline with Tween-80
[3] = dose: 100.0 mg/kg/injection, vehicle: saline with Tween-80
[4] = dose: 200.0 mg/kg/injection, vehicle: saline with Tween-80
[5] = dose: 400.0 mg/kg/injection, vehicle: saline with Tween-80
[6] = dose: 25.0 mg/kg/injection, vehicle: saline
[7] = dose: 50.0 mg/kg/injection, vehicle: saline
[8] = dose: 100.0 mg/kg/injection, vehicle: saline
[9] = dose: 200.0 mg/kg/injection, vehicle: saline
[10] = dose: 16.0 mg/kg/injection, vehicle: saline
[11] = dose: 32.0 mg/kg/injection, vehicle: saline
[12] = dose: 800.0 mg/kg/injection, vehicle: saline with Tween-80
[13] = dose: 1600.0 mg/kg/injection, vehicle: saline with Tween-80
[14] = dose: 12.5 mg/kg/injection, vehicle: saline with Tween-80
[15] = dose: 6.25 mg/kg/injection, vehicle: saline with Tween-80
[16] = dose: 2.0 mg/kg/injection, vehicle: saline
[17] = dose: 4.0 mg/kg/injection, vehicle: saline
[18] = dose: 8.0 mg/kg/injection, vehicle: saline
[19] = dose: 0.5 mg/kg/injection, vehicle: saline
[20] = dose: 1.0 mg/kg/injection, vehicle: saline
[21] = dose: 32.0 mg/kg/injection, vehicle: saline with Tween-80
[22] = dose: 64.0 mg/kg/injection, vehicle: saline with Tween-80
[23] = dose: 0.01 mg/kg/injection, vehicle: saline
[24] = dose: 4.0 mg/kg/injection, vehicle: saline with Tween-80
[25] = dose: 8.0 mg/kg/injection, vehicle: saline with Tween-80
[26] = dose: 2.0 mg/kg/injection, vehicle: saline with Tween-80

Measured: T/C

CC(=O)Nc1ccc(/C=N/NC(N)=S)cc1
inactive: [1] 106 % of control and 108 % of control | [2] 94 % of control and 108 % of control | [3] 92 % of control and 124 % of control | [4] 89 % of control | [5] 113 % of control and 114 % of control

O=[N+]([O-])c1ccc([N+](=O)[O-])c(Cl)c1
inactive: dose: 2.5 mg/kg/injection, vehicle: saline with Tween-80 101 % of control | dose: 5.0 mg/kg/injection, vehicle: saline with Tween-80 97 % of control | dose: 10.0 mg/kg/injection, vehicle: saline with Tween-80 99 % of control

CN(C)C=O
inactive: dose: 12.5 mg/kg/injection, vehicle: saline 102 % of control | [6] 101 % of control and 105 % of control | [7] 101 % of control and 115 % of control | [8] 92 % of control and 101 % of control and 120 % of control | [9] 96 % of control and 106 % of control | dose: 800.0 mg/kg/injection, vehicle: saline 116 % of control and 120 % of control | dose: 1600.0 mg/kg/injection, vehicle: saline 107 % of control

Nc1ccc(S(N)(=O)=O)cc1
inactive: [1] 95 % of control | [2] 108 % of control and 115 % of control | [3] 119 % of control | [4] 105 % of control and 119 % of control | [5] 102 % of control and 113 % of control

CN(C)/N=N/c1nc[nH]c1C(N)=O
inactive: [1] 124 % of control | [2] 119 % of control | [3] 108 % of control

Nc1ccc(C(=O)O)c(O)c1
inactive: dose: 37.5 mg/kg/injection, vehicle: saline with Tween-80 116 % of control | dose: 75.0 mg/kg/injection, vehicle: saline with Tween-80 116 % of control | dose: 150.0 mg/kg/injection, vehicle: saline with Tween-80 108 % of control | dose: 300.0 mg/kg/injection, vehicle: saline with Tween-80 101 % of control

CCOC(=O)CC(SP(=S)(OC)OC)C(=O)OCC (stereo not given)
inactive: [1] 108 % of control | [2] 112 % of control | [3] 121 % of control | [4] 96 % of control

CCN(CC)CCOc1ccc2c(c1)C(=O)c1cc(OCCN(CC)CC)ccc1-2
inactive: [10] 101 % of control | [11] 108 % of control | dose: 62.0 mg/kg/injection, vehicle: saline 103 % of control

Nc1n[nH]c(N)n1
inactive: [3] 93 % of control | [4] 101 % of control | [5] 104 % of control | [12] 110 % of control | [13] 108 % of control

Nc1ccc(S(=O)(=O)c2ccc(N)cc2)cc1
inactive: [14] 102 % of control | [1] 103 % of control and 115 % of control | [2] 113 % of control and 117 % of control | [3] 112 % of control | [4] 96 % of control and 102 % of control | [5] 108 % of control

Cc1cc(N(CC(C)Br)CC(C)Br)ccc1N=Nc1ccccc1C(=O)O (stereo not given)
inactive: dose: 3.12 mg/kg/injection, vehicle: saline with Tween-80 110 % of control | [15] 105 % of control | [14] 113 % of control

NC(C/[N+]([O-])=N/O)C(=O)O (stereo not given)
inactive: [16] 96 % of control | [17] 116 % of control | [18] 93 % of control | [10] 118 % of control | [11] 99 % of control

CC1=C(/C=C/C(C)=C/C=C/C(C)=C/C(=O)O)C(C)(C)CCC1
inactive: [19] 107 % of control | [20] 110 % of control | [16] 100 % of control | [17] 93 % of control and 94 % of control | [18] 98 % of control and 100 % of control | [10] 108 % of control | [11] 104 % of control

Nc1ncnc2c1ncn2C1OC(COP(=O)(O)O)C(O)C1O (stereo not given)
inactive: [8] 103 % of control and 107 % of control | [9] 102 % of control and 115 % of control | dose: 400.0 mg/kg/injection, vehicle: saline 112 % of control

Cc1cn(C2CC(O)C(CO)O2)c(=O)[nH]c1=O (stereo not given)
inactive: [21] 94 % of control and 101 % of control | [22] 103 % of control and 108 % of control | [3] 108 % of control and 112 % of control | dose: 128.0 mg/kg/injection, vehicle: saline with Tween-80 102 % of control and 105 % of control | [4] 100 % of control and 102 % of control | dose: 256.0 mg/kg/injection, vehicle: saline with Tween-80 95 % of control and 97 % of control | [5] 101 % of control and 103 % of control | dose: 512.0 mg/kg/injection, vehicle: saline with Tween-80 102 % of control and 103 % of control | [12] 106 % of control and 107 % of control | [13] 96 % of control and 99 % of control

Cc1c2oc3c(C)ccc(C(=O)N[C@@H]4C(=O)N[C@H](C(C)C)C(=O)N5CCC[C@H]5C(=O)N(C)CC(=O)N(C)[C@@H](C(C)C)C(=O)O[C@H]4C)c3nc-2c(C(=O)N[C@@H]2C(=O)N[C@H](C(C)C)C(=O)N3CCC[C@H]3C(=O)N(C)CC(=O)N(C)[C@@H](C(C)C)C(=O)O[C@H]2C)c(N)c1=O (I: [aThr][dV]P[Sar][NMeV] / II: [aThr][dV]P[Sar][NMeV]; ester I:1-I:C, II:1-II:C; linker I:N-II:N via Actinocin(9to1))
inactive: [23] 111 % of control | dose: 0.02 mg/kg/injection, vehicle: saline 116 % of control | dose: 0.05 mg/kg/injection, vehicle: saline 101 % of control

CNc1nc(N(C)C)nc(N(C)C)n1
inactive: [6] 100 % of control | [7] 100 % of control

O=C1c2ccccc2C(=O)c2c(NCCNCCO)ccc(NCCNCCO)c21
inactive: [19] 116 % of control | [20] 119 % of control | [16] 102 % of control and 117 % of control | [24] 107 % of control and 115 % of control | [17] 117 % of control and 121 % of control | [25] 100 % of control and 118 % of control | [18] 113 % of control and 119 % of control | [10] 111 % of control

ClC1=C(Cl)C2(Cl)C3C(Cl)C(Cl)CC3C1(Cl)C2(Cl)Cl (stereo not given)
inactive: [15] 110 % of control and 113 % of control | [14] 100 % of control and 120 % of control | [1] 89 % of control and 95 % of control | [2] 102 % of control and 116 % of control

COC1C(O)CC(OC2CC(Oc3cc4cc5c(c(O)c4c(O)c3C)C(=O)[C@@H](OC3CC(OC4CC(OC6CC(C)(O)C(OC(C)=O)C(C)O6)C(O)C(C)O4)C(O)C(C)O3)[C@H]([C@H](OC)C(=O)[C@@H](O)[C@@H](C)O)C5)OC(C)C2OC(C)=O)OC1C (stereo not given in full)
inactive: [23] 100 % of control | dose: 0.03 mg/kg/injection, vehicle: saline 102 % of control | dose: 0.06 mg/kg/injection, vehicle: saline 105 % of control | dose: 0.12 mg/kg/injection, vehicle: saline 95 % of control

Nc1ncnc2nc[nH]c12
inactive: [26] 120 % of control | [24] 119 % of control | [25] 101 % of control and 108 % of control | dose: 16.0 mg/kg/injection, vehicle: saline with Tween-80 90 % of control and 117 % of control and 120 % of control

N=C(N)c1ccc(/C=C/c2ccc(C(=N)N)cc2)cc1
inactive: [24] 106 % of control | [25] 109 % of control | [21] 119 % of control | [22] 116 % of control

COc1cccc2c1C(=O)c1c(O)c3c(c(O)c1C2=O)C[C@@](O)(/C(C)=N/NC(=O)c1ccccc1)C[C@@H]3OC1CC(N)C(O)C(C)O1 (stereo not given in full)
inactive: dose: 0.25 mg/kg/injection, vehicle: saline with Tween-80 104 % of control | dose: 0.5 mg/kg/injection, vehicle: saline with Tween-80 111 % of control | dose: 1.0 mg/kg/injection, vehicle: saline with Tween-80 124 % of control | [26] 86 % of control and 118 % of control

COc1cc2c(c(OC)c1OC)-c1ccc(OC)c(=O)cc1[C@@H](NC(C)=O)CC2
inactive: dose: 0.13 mg/kg/injection, vehicle: saline 104 % of control | dose: 0.25 mg/kg/injection, vehicle: saline 104 % of control | [19] 108 % of control | [20] 104 % of control
